Results reported in patent publication EP4014973B1, “INHALED LIQUID FOR THE TREATMENT OF RESPIRATORY INFECTIONS IN HUMANS CAUSED BY PATHOGENS RESISTANT TO ANTIBIOTICS” (Conick Biotech LLC, priority 2020, dated 2022).
Where two headings read alike, the source gives them in different places.

Tests used:
Pasteurella = test: In vitro comparative zone diameter test on Müller-Hinton-Agar; type: cell-based; settings: amount used: novel compound 0.05 mL, Cephalosporin 0.1 mL, Ampicillin 0.2 mL
Cryptococcus = test: as above; type: cell-based; settings: amount used: novel compound 0.05 mL, Cephalosporin 0.1 mL, Ampicillin 0.2 mL
Campylobacter = test: as above; type: cell-based; settings: amount used: novel compound 0.05 mL, Cephalosporin 0.1 mL, Ampicillin 0.2 mL
Microsporidia = test: as above; type: cell-based; settings: amount used: novel compound 0.05 mL, Cephalosporin 0.1 mL, Ampicillin 0.2 mL
Histoplasma capsulatum = type: cell-based; settings: Müller-Hinton-Agar, amount used: novel compound 0.05 mL, Cephalosporin 0.1 mL, Ampicillin 0.2 mL
Micrococcus = test: In vitro comparative zone diameter test on Müller-Hinton-Agar; type: cell-based; settings: amount used: novel compound 0.05 mL, Cephalosporin 0.1 mL, Ampicillin 0.2 mL
Candida = test: as above; type: cell-based; settings: amount used: novel compound 0.05 mL, Cephalosporin 0.1 mL, Ampicillin 0.2 mL
mice [1] = settings: p.o., 2,000 µL / kg
rats [2] = settings: p.o., 2,250 µL / kg
mice [3] = system: mice
rats [4] = system: rats
humans = test: Clinical pilot study of side effects after inhalation; settings: 80 humans
[5] = inhalatory application, 2,250 µL / kg
[6] = inhalatory application, after 14 days
[7] = inhalatory application, 2,500 µL / kg
[8] = inhalation, 10ml 2% / 30 kg every 8 hours for seven (7) days

CC1(C)S[C@@H]2[C@H](NC(=O)[C@H](N)c3ccccc3)C(=O)N2[C@H]1C(=O)O [Ampicilin, Ampicillin]
R (evaluation of the results by zone diameter) (Pasteurella): MS (5 - 9 mm: moderately sensitive: MS) | zone diameter (Pasteurella): 5 mm | R (evaluation of the results by zone diameter) (Cryptococcus): R (0mm - 4mm: resistant: R) | zone diameter (Cryptococcus): 0 mm | R (evaluation of the results by zone diameter) (Campylobacter): MS (5 - 9 mm: moderately sensitive: MS) | zone diameter (Campylobacter): 7 mm | R (evaluation of the results by zone diameter) (Microsporidia): R (0mm - 4mm: resistant: R) | zone diameter (Microsporidia): 3 mm | R (evaluation of the results by zone diameter) (Histoplasma capsulatum): R (0mm - 4mm: resistant: R) | zone diameter (Histoplasma capsulatum): 2 mm | R (evaluation of the results by zone diameter) (Micrococcus): R (0mm - 4mm: resistant: R) | zone diameter (Micrococcus): 0 mm | R (evaluation of the results by zone diameter) (Candida): R (0mm - 4mm: resistant: R) | zone diameter (Candida): 4 mm

C=CCc1ccc(O)c(OC)c1.CCN(CC)CC(=O)Nc1c(C)cccc1C [Novel Compound, N-[N'-(carboxymethylenyl-2,6-dimethyl-aniline)-N,N-diethylammonium]-[2'-methoxy-4'-(2'-propenyl)]-phenolate.]
R (evaluation of the results by zone diameter) (Pasteurella): ES (21 mm and more: extremely sensitive: ES) | zone diameter (Pasteurella): 36 mm | R (evaluation of the results by zone diameter) (Cryptococcus): ES (21 mm and more: extremely sensitive: ES) | zone diameter (Cryptococcus): 31 mm | R (evaluation of the results by zone diameter) (Campylobacter): ES (21 mm and more: extremely sensitive: ES) | zone diameter (Campylobacter): 32 mm | R (evaluation of the results by zone diameter) (Microsporidia): ES (21 mm and more: extremely sensitive: ES) | zone diameter (Microsporidia): 30 mm | R (evaluation of the results by zone diameter) (Micrococcus): ES (21 mm and more: extremely sensitive: ES) | zone diameter (Micrococcus): 38 mm | R (evaluation of the results by zone diameter) (Candida): ES (21 mm and more: extremely sensitive: ES) | zone diameter (Candida): 33 mm | Breading and cardiac functions (mice [1]): regular | time after which discomfort symptoms disappeared (mice [1]): 1 to 3 min | mice that changed their behavior and demonstrated light discomfort (running, anxiety) (mice [1]; out of hundred (100)): 23 | Breading and cardiac functions (rats [2]): regular | time after which discomfort symptoms disappeared (rats [2]): 1 to 3 min | rats that changed their behavior and demonstrated light discomfort (running, anxiety) (rats [2]; out of hundred (100)): 37 | Breading and cardiac functions (mice [3]; [5]): regular | time after which discomfort symptoms disappeared (mice [3]; [5]): 3 to 5 min | mice that changed their behavior and demonstrated discomfort (running, anxiety) (mice [3]; inhalatory application, 2,250 µL / kg, out of hundred (100)): 21 | reexamination of the animals (mice [3]; [6]): no new irregularities were found | Breading and cardiac functions (rats [4]; [7]): regular | time after which discomfort symptoms disappeared (rats [4]; [7]): 5 to 6 min | rats that changed their behavior and demonstrated discomfort (running, anxiety) (rats [4]; inhalatory application, 2,500 µL / kg, out of hundred (100)): 29 | reexamination of the animals (rats [4]; [6]): no new irregularities were found | C Reactive Protein (CRP) measurements (humans; blood samples before the test, on the 4th and 8th day): no inflammation was developed | pulse frequency and blood pressure (humans; during the inhalation, 10ml 2% / 30 kg every 8 hours for seven (7) days): not significantly altered | Electrocardiography measurements (humans; during the intake, 10ml 2% / 30 kg every 8 hours for seven (7) days): regular without any pathological and irregular oscillations | coughing (humans; in the very beginning of the test): Sporadic coughing was recorded in some participants | bronchospasms (humans; [8]): No bronchospasms were recorded | dyspnea (humans; [8]): No dyspnea was recorded | respiratory function (humans; [8]): not disturbed
